Experimental findings from patent publication US12209112B2, “Methods of preventing or treating diseases, conditions, or disorders associated with chemotherapy” (The Chinese University of Hong Kong, priority 2022, dated 2025) are described below.

Where two headings read alike, the source gives them in different places.

In data set [1] the test system is hESC-CMs. Kind of data set: Mitochondrial morphology analysis (MitoTracker Deep Red). Format: cell-based, human. The protocol: To evaluate mitochondrial morphology as a surrogate of cell and mitochondrial viability, hESC-CMs were incubated in B27+/RPMI−1640 media containing 50 nmol/L MitoTracker Deep Red (MTDR) (Thermo Fisher Scientific, USA), and 1 μg/ml Hoechst 33342 (Thermo Fisher Scientific, USA) for 20 minutes. Microscopic images were acquired using DMi8s Research Inverted Thunder Imager Live Cell System (Leica, Germany). For MTDR and Hoechst 33342 imaging, excitation wavelengths of […] and 480 nm, respectively, were used. Mitochondrial morphology was classified into three categories: i) elongated, ii) punctate, and iii) perinuclear. Nuclear morphology was classified as either condensed or normal.

Data set [2] concerns C57BL/6J male mice. Type of data set: in vivo, mouse. On the procedure:
Recombinant human GDF15/MIC-1 protein (CHO-derived) was purchased from PeproTech Inc. (Cranbury, USA) and described in Example 1. […] For in vitro studies, solid lyophilized powder of these two drugs were solubilized at the recommended concentrations in sterile water, and separate aliquots were made and frozen until thawing prior to addition to cell cultures. For in vivo studies, all agents were dissolved in […] normal saline according to the required concentrations (doxorubicin, 5 mg/kg; GDF15, 0.5 mg/kg; dexrazoxane, […]), and the final volume of each intraperitoneal injection was 100 μl. The recommended dose ratio of dexrazoxane to doxorubicin was 10 to 1. In the following examples, 5 mg/kg of doxorubicin was used which correspond to 50 mg/kg of dexrazoxane. The FDA recommends that dexrazoxane be injected within 0.5 hour prior to doxorubicin infusion in individuals. This was followed in the same manner when applying to the test animals.
To induce cardiotoxicity in the mouse, four weekly intraperitoneal injections of doxorubicin at 5 mg/kg were administered. After one dose of doxorubicin at 5-6 mg/kg in a mouse, the level of exposure has been estimated to be similar to that of a human individual being given a standard dose of doxorubicin at approximately 60 mg/m^2. […]
The image processing and analysis software, ImageJ version 1.53K, was used for evaluation of histopathology from mouse experiments. For Masson's trichrome staining, the acquired images were converted from color to grayscale using ImageJ, the blue-stained collagen were segmented (separated) using thresholding, and the threshold areas in a representative microscopic field were quantified. […] Cells containing brown staining (TUNEL-positive cells) were counted in a representative microscopic field for each mouse in each group.

The test system of data set [3] is C57BL/6J male mice. Kind of data set: Noninvasive blood pressure in mouse doxorubicin cardiotoxicity model. The conditions noted are these: for Day 28 DBP / Day 28 SBP: after doxorubicin 5 mg/kg intraperitoneal once weekly for four weeks (Dox + groups); for Day 28 DBP / Day 28 SBP / Day 0 DBP / Day 0 SBP: n = 4 per group; for Day 0 DBP / Day 0 SBP: before doxorubicin administration. Format: in vivo. The text has this: Recombinant human GDF15/MIC-1 protein (CHO-derived) was purchased from PeproTech Inc. (Cranbury, USA) and described in Example 1. […] PubChem identifier number 71384) were purchased from Abcam (Cambridge, UK). For in vitro studies, solid lyophilized powder of these two drugs were solubilized at the recommended concentrations in sterile water, and separate aliquots were made and frozen until thawing prior to addition to cell cultures. […] The recommended dose ratio of dexrazoxane to doxorubicin was 10 to 1. In the following examples, 5 mg/kg of doxorubicin was used which correspond to 50 mg/kg of dexrazoxane. The FDA recommends that dexrazoxane be injected within 0.5 hour prior to doxorubicin infusion in individuals. This was followed in the same manner when applying to the test animals. Ten- to twelve-week old C57BL/6J male mice were purchased from the Laboratory Animal Services Centre of CUHK. They were maintained in specific pathogen-free facility of the CUHK Laboratory Animal Services Centre Research Unit at Prince of Wales Hospital with free access to food and water and maintained in a light/night cycle of 12 hours/12 hours. All mice were fed a standard diet. Blood pressure of animals was measured using the noninvasive CODA® High Throughput System (Torrington, USA) in accordance with the manufacturer's instructions. Measurement platform was prewarmed and maintained at 33-35° C. O-cuffs and VPR-cuffs were used as instructed. Blood pressure of each mouse was measured for at least three cycles. Mice were released and returned to their cages immediately after measurement. Blood pressure was measured twice, once at the beginning of the experiment and once before sacrifice. To induce cardiotoxicity in the mouse, four weekly intraperitoneal injections of doxorubicin at 5 mg/kg were administered. After one dose of doxorubicin at 5-6 mg/kg in a mouse, the level of exposure has been estimated to be similar to that of a human individual being given a standard dose of doxorubicin at approximately 60 mg/m^2.

The subject of data set [4] is hESC-CMs. Kind of data set: α-actinin immunostaining for sarcomeric integrity. Type of data set: cell-based, human. The protocol:
hESC-CMs were permeabilized using 0.1% Triton X-100 (Thermo Fisher Scientific, USA). After permeabilizing for 15 minutes, cells were washed three times in PBS, and further permeabilization was blocked by incubating cells in PBS with 10% FBS (Hyclone, USA) for 1 hour at room temperature. Cells were incubated with the primary anti-actinin antibody (1:400) (Abcam, UK) and diluted in PBS with 10% FBS overnight. Cells were then washed three times with PBS and incubated with a goat anti-mouse IgG1 secondary antibody (1:1000 diluted in PBS with 10% FBS) (Thermo Fisher Scientific, USA) for 1 hour at room temperature. Finally, cells were washed twice with PBS and mounted using ibidi mounting medium with DAPI (Ibidi, Germany). Microscopic images were acquired using the DMi8s Research Inverted Thunder Imager Live Cell System (Leica, Germany) at 20×, 40×, and 100× magnification.

[5] abbreviates: 300 ng/ml GDF15 pretreatment, hESC-CMs exposed to doxorubicin.

Regarding `COc1cccc2c1C(=O)c1c(O)c3c(c(O)c1C2=O)C[C@@](O)(C(=O)CO)C[C@@H]3OC1C[C@H](N)[C@H](O)[C@H](C)O1.Cl` (stereo partly drawn) [Dox, (8S,10S)-10-[(3-Amino-2,3,6-trideoxy-L-lyxohexopyranosyl)oxy]-7,8,9,10-tetrahydro-6,8,11-trihydroxy-8-(hydroxyacetyl)-1-methoxynaphthacene-5,12-dione hydrochloride, reference compound], in the data set on hESC-CMs [1] (doxorubicin-treated cells, no pretreatment, untreated control 5.4±4.2%), the “punctation or perinuclear changes of mitochondria” value worked out at 47.3±12.6%. Further, the “elongated mitochondria (proportion of hESC-CMs)” value in the data set with hESC-CMs [1] (doxorubicin-treated cells, no pretreatment, untreated control 94.6±5.8%) is 24.5±17.1%. Moreover, in the data set with C57BL/6J male mice [2] (mouse, in vivo), the “cardiac fibrosis (Masson's trichrome)” value was “diffuse myocardial interstitial fibrosis as well as perivascular fibrosis”. In addition, in the data set with C57BL/6J male mice [3], the “Day 28 DBP” value was found to be 119 ± 7 mmHg, the “Day 28 SBP” value was determined as 146 ± 7 mmHg, the “Day 0 DBP” value was 87 ± 15 mmHg and the “Day 0 SBP” value is reported as 116 ± 13 mmHg. Also, the “sarcomere structure (α-actinin immunostaining)” value in the data set with hESC-CMs [4] (hESC-CMs exposed to Dox alone) was “considerable disruption of sarcomere structure and nuclear condensation”.
On to “GDF15: commercially available recombinant human GDF-15 protein (PeproTech 120-28C), CHO cell-derived, SEQ ID NO: 1”, for which, in the data set on hESC-CMs [1] (setting [5]), the elongated mitochondria was 62.5±11.0% and the perinuclear mitochondria is recorded as 13.2±14.7%. In addition, the “mitochondrial integrity compared with dexrazoxane” value with hESC-CMs [1] (hESC-CMs, pretreatment in the presence of Dox) was “performed similarly to dexrazoxane”. The “cardiac fibrosis (Masson's trichrome)” value with C57BL/6J male mice [2] (mice, pretreatment before doxorubicin, versus doxorubicin only) was “visually and quantitatively reduced”. Besides, the “systolic and diastolic blood pressure” value in the data set with C57BL/6J male mice [3] (GDF15 5 mg/kg intraperitoneal before doxorubicin, compared with doxorubicin only) was “significantly lowered”. Moreover, in the data set on C57BL/6J male mice [3], the “Day 28 DBP” value is given as 88 ± 5 mmHg, the “Day 28 SBP” value turned out to be 121 ± 5 mmHg, the “Day 0 DBP” value was found to be 83 ± 17 mmHg and the “Day 0 SBP” value is on record as 117 ± 12 mmHg. Further, the “sarcomere structure (α-actinin immunostaining)” value with hESC-CMs [4] (hESC-CMs, agent only, no doxorubicin) was “well-organized, striated sarcomeres”. Besides, the “sarcomeric damage (α-actinin immunostaining)” value with hESC-CMs [4] (hESC-CMs, pretreatment preceding doxorubicin) is reported as “sarcomeric damage was evidently attenuated”.
